The source of these data is PubChem BioAssay AID652087 (The Scripps Research Institute Molecular Screening Center, 2013).

The target of this experiment is Sphingosine 1-phosphate receptor 1 (Homo sapiens) (UniProt P21453). Briefly: blockade of S1P-driven S1P1 signalling – cell-based, fluorescence, counter-screen for OPRK1 antagonist project, confirmation (AID 652087). As to conditions: Tango EDG-1-bla U2OS, beta-lactamase FRET, S1P antagonism; at 9 µM; stronger effect = higher value. For orientation: Counterscreens check selectivity or assay interference.
Sequence of Sphingosine 1-phosphate receptor 1 (Homo sapiens) (P21453 whole entry, looked up): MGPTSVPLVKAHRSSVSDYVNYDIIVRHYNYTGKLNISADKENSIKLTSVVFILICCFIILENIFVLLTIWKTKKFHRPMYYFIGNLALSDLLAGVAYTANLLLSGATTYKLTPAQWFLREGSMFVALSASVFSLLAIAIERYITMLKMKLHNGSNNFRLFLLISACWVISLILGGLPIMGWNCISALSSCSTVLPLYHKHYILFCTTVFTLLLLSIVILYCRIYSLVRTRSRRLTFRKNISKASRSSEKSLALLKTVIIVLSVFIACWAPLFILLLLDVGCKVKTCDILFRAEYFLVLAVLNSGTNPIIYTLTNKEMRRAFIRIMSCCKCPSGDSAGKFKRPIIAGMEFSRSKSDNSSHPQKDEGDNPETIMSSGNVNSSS

Active and inactive are the calls of the source.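 Rule for the calls: active = inhibition above 30%; inactive = inhibition at or below 30%.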

Consider `CN(C)c1cc(NC(=O)Nc2ccccc2)c2ccccc2n1`, for which the inhibition (in general, the relative decrease from the control value, in per cent) is -14.9% (inactive).
Regarding `COc1cc([N+](=O)[O-])c(OC)cc1SCc1n[nH]c(=S)n1-c1ccc(C)cc1`, the inhibition is 3.13% (inactive).
Take `CCOC(=O)c1cc(C(=O)OC)c(C)nc1N1CCC(NC2CCCCC2O)CC1` (stereo unspecified): the inhibition is -1.54% (inactive).
Take `O=[N+]([O-])c1c(Sc2ccc(Cl)cc2)ccc2nsnc12`: the inhibition was 76.9%.
Under `Cn1c(=O)c2cc3cc(Cl)ccc3nc2c2c(=O)n(-c3ccccc3)c(=O)n(-c3ccccc3)c21` stands 59.2%; under `CC(=O)c1sc2nc(-c3cccs3)cc(C(F)(F)F)c2c1N`, 2.13% (inactive).
The same measure for `COc1cccc(/C=C(\C#N)c2ccc([N+](=O)[O-])cc2)c1OC`: 52.1%; for `N#Cc1cccc(C#N)c1Oc1ccc(N)cc1`: 15.3% (inactive).
As for `COC(=O)/C=C1\SC(=Nc2ccc(Cl)cc2)N(c2ccc(Cl)cc2)C1=O`, the inhibition is 42.5%.
Under `CCCCCCCCCCCC(=O)ON1C(=O)CCC1=O` stands 51.2%; under `COC(=O)c1cnn(-c2ccc(Cl)cc2)c1C=C(C#N)C#N`, 45.1%; under `COc1ccc(OS(=O)(=O)c2sc(Br)cc2Br)cc1`, 11.6% (inactive).
Take `S=C(NNc1c(Cl)cncc1Cl)Nc1ccc(Cl)cc1Cl`: the inhibition was 45.3%.
The same measure for `C#Cc1cccc(NC(=O)c2sc3nc4c(c(-c5cccs5)c3c2N)CCCC4)c1`: 46.3%; for `COc1ccccc1C1CCN(Cc2ccc3c(c2)CCC(C)(C)O3)CC1`: -5.53% (inactive); for `O=C(NNC(=O)C(F)(F)F)c1ccc[nH]1`: -19.8% (inactive).
The same measure for `CCOC(=O)c1cn[nH]c1NC(=S)Nc1cccc(C(F)(F)F)c1`: 71.7%.
The same measure for `CCCCNc1ccc2c3c(cccc13)C(=O)N(CCCC)C2=O`: 93.5%.
As for `CCCCCC[n+]1ccccc1/C=C/c1ccc(N(C)C)cc1`, the inhibition is 99.1%.
Turning to `CS(=O)(=O)/C(C#N)=C\c1ccc(Cl)s1`, the inhibition was -11.8% (inactive).
`CC1COC(c2cccc([N+](=O)[O-])c2)N1` (stereo unspecified): the inhibition is 2.16% (inactive).
As to `CSc1sc(C(=O)NC(=O)Nc2ccc(Cl)cc2)c2c1-c1nocc1CC2`, the inhibition is 18.7% (inactive).
With `C=CCNC(=S)NNC(=O)c1oc2nc(-c3ccc(Cl)cc3)cc(-c3ccccc3)c2c1N`, the inhibition is 8.18% (inactive).
Consider `C=CCn1c(-c2sc3nnc(-c4ccccc4)c(-c4ccccc4)c3c2N)n[nH]c1=S`, for which the inhibition is 33.4%.
The same measure for `O=C1c2ccc(Cl)c3c(N4CCSCC4)ccc(c23)C(=O)N1c1ccccc1`: -15.7% (inactive).
Consider `Clc1ccc2nc3c(nc2c1)Nc1ccccc1S3`, for which the inhibition was 94.9%.
Under `CCOC(=O)[C@@H](N)CCSC` stands -3.49% (inactive); under `N#Cc1cccnc1NNC(=O)COCC(=O)O`, 86.5%; under `O=C(N/C(=C\c1ccc(-c2ccc([N+](=O)[O-])cc2)o1)c1nc2ccccc2[nH]1)c1ccccc1`, 73.1%.
Under `CCOC(=O)C1CCN(Cc2cccc(NC(=O)c3ccco3)c2)CC1` stands 15.4% (inactive); under `CCOC(=O)C1CCN(Cc2cccc(NC(=O)c3cccs3)c2)CC1`, 15.1% (inactive).
Regarding `CSc1ccc(/C=C/c2onc(C)c2[N+](=O)[O-])s1`, the inhibition was 10.1% (inactive).
Under `O=C(Nc1ccc(Cl)cc1Cl)c1cc([N+](=O)[O-])cc2c1-c1ccc([N+](=O)[O-])cc1C2=O` stands 63.3%; under `O=[N+]([O-])c1ccc(C2=NN(c3ccccc3)C(c3ccco3)C2)cc1` (stereo unspecified), 124%.
The same measure for `O=[N+]([O-])c1ccc(-c2ccc(/C=N/NC(=S)Nc3cccc(F)c3)o2)cc1`: 67.9%; for `Oc1c(Cl)cc(Cl)cc1C1Nc2cc(Cl)c(C(F)(F)F)cc2N1` (stereo unspecified): 38.5%.
The same measure for `O=[N+]([O-])c1ccc(N/N=C/c2ccc(-c3cccs3)s2)nc1`: 79.4%; for `N#Cc1c(S/C=C(\O)c2cc3ccccc3o2)nc2c(c1C(F)(F)F)CCCC2`: 14.5% (inactive); for `O=C(Nc1ccc([N+](=O)[O-])cc1)Nc1csc(-c2cccnc2)n1`: 5.35% (inactive).
Take `CN(C)c1cccc2c1c(NC(=O)Nc1ccc(OCc3ccccc3)cc1)nn2C`: the inhibition was -0.3% (inactive).
The same measure for `NC(=NC(=O)c1cccc(C(F)(F)F)c1)c1ccc(C(F)(F)F)cn1`: 47.1%; for `O=[N+]([O-])c1ccc(N2CCc3ccccc32)cc1`: 36.8%.
The same measure for `COC(=O)c1ccc(/C=C2\C(=O)Nc3ccccc32)n1-c1ccc(F)cc1`: 9.9% (inactive).
The same measure for `Clc1ccc2c(Nc3ccc4c(c3)OCO4)ccnc2c1`: -9.65% (inactive).
For `Nc1c(C(=O)c2ccccc2)sc2nsc(SCCN3CCCC3)c12`, the inhibition was 27.5% (inactive).
Under `Nc1c(C(=O)N/N=C/c2ccc3c(c2)OCO3)sc2nnc(-c3ccccc3)c(-c3ccccc3)c12` stands 65%; under `COc1ccc([N+](=O)[O-])c(S(=O)(=O)c2ccc(Cl)cc2)n1`, 12.7% (inactive); under `COC(=O)c1cc(-c2ccc(OC)cc2)c(-c2ccc(OC)cc2)s1`, 9.19% (inactive).
The same measure for `COc1ccccc1NC(=O)NCCN1CCN(Cc2ccccc2)CC1`: 66.8%.
Turning to `O=C(c1cnn(-c2ccc(Cl)cc2)c1C(F)(F)F)N1CCN(c2ncnc3ccsc23)CC1`, the inhibition was -19.1% (inactive).
Under `O=[N+]([O-])c1ccc(N/N=C2\CCOc3ccc(F)cc32)cc1` stands 23.2% (inactive).
On to `O=C(Nc1ccc(F)c(Cl)c1)c1cc(Br)ccc1O`, for which the inhibition was 51.5%.
On to `CN(C)c1ccc(-n2nnnc2SCc2ccc(Cl)cc2)cc1`, for which the inhibition is 37.2%.
Take `O=C(O)C(F)(F)C(F)(F)C(=O)NCc1cccc(Cl)c1`: the inhibition was -3.44% (inactive).
For `CC(CCC(C)OC(=O)c1ccccc1C(=O)O)OC(=O)c1ccccc1C(=O)O` (stereo unspecified), the inhibition is -6.9% (inactive).
Turning to `O=C(/C=C/c1cc(-c2ccccc2)c(C(F)(F)F)s1)c1cccs1`, the inhibition was 23.6% (inactive).
With `CC(=O)N1CCC(C(=O)O/N=C(\N)c2ccc(Cl)cc2)CC1`, the inhibition was 16.3% (inactive).
Under `CC(=O)Nc1onc(C)c1-c1nc(-c2ccc(Cl)cc2Cl)cs1` stands -6.28% (inactive); under `CCOC(=O)c1ccc(N2CC3CCCCN3C2c2cccc(OC)c2O)cc1` (stereo unspecified), -25.2% (inactive); under `COc1cccc(C(=O)c2sc3nsc(SCc4ccc(F)cc4)c3c2N)c1`, -12.7% (inactive).
`c1ccc(-c2cc3ncnc(NCc4ccc5c(c4)OCO5)c3s2)cc1`: the inhibition is 4.01% (inactive).
Under `Cc1ccc(/C=c2\sc3nc4ccccc4n3c2=O)o1` stands -0.81% (inactive); under `Brc1ccc(-c2csc(Nc3ccncc3)n2)cc1`, 65.4%.
Under `O=c1c2cc(-c3ccccc3)sc2nnn1/N=C/c1cccs1` stands 15.2% (inactive); under `CCN(CC)c1ccc(/C=C/c2ccc([N+](=O)[O-])cc2C#N)cc1`, 55.7%; under `O=[N+]([O-])c1ccc(-c2ccc(/C=N/Nc3ccccc3)o2)cc1`, 92.1%.
